# Results reported in ChEMBL document CHEMBL5038605, “Probing the Allosteric Inhibition Mechanism of a Spike Protein Using Molecular Dynamics Simulations and Active Compound Identifications” (J Med Chem, 2022).
# Calls of active or inactive are those of the source. No cut-off for these calls is given here.
# System: SARS-CoV-2
# Test: Antiviral activity against SARS-CoV-2 infected in vero E6 cells assessed as inhibition of viral replication at 100 uM preincubated for 1 hr followed by viral infection for 24 hrs by qRT-PCR analysis
# Assay type: functional, organism-based
# Conditions: Severe acute respiratory syndrome coronavirus 2, Vero C1008, time 25.0 hrs
row,Structure (SMILES),Activity
1,CC(=O)N1CCN(c2nc(C)cc(Nc3ccccc3)n2)CC1,Active
2,CCn1ccc(-c2nc(C)nn2-c2cc(S(N)(=O)=O)ccc2F)cc1=O,Active
3,Cn1cc(-c2cc3n(n2)CCC(=O)N3CC(=O)NCc2ccco2)c2ccccc21,Active
4,O=C(O)c1cccc(-c2ccc(CNCCc3ccccc3)o2)c1,Active
5,Cc1nn(-c2ccccc2)c(Oc2ccccc2)c1CCC(=O)Nc1ccccc1,Active
6,O=C(O)c1ccc(OCc2cccc3ccccc23)cc1,Active
7,Cc1ccc2nc(C34CC5CC(CC(C5)C3)C4)cc(C(=O)O)c2c1,Active

# System: SARS-CoV-2
# Test: Antiviral activity against SARS-CoV-2 infected in vero E6 cells assessed as inhibition of viral replication at 100 uM preincubated for 1 hr followed by viral infection for 2 hrs by qRT-PCR analysis
# Assay type: functional, organism-based
# Conditions: Severe acute respiratory syndrome coronavirus 2, Vero C1008, time 3.0 hrs
row,Structure (SMILES),Activity
1,O=C(O)c1cccc(-c2ccc(CNCCc3ccccc3)o2)c1,Active
